Experiment: Inhibition of tyrosinase in mouse Melan-a cells assessed as decrease in L-DOPA Vmax at 60 uM by Lineweaver-Burk plot

Ki: 3.1 mM
Compound: OC[C@H]1O[C@@H](Oc2c(O)cc(O)cc2/C=C/c2ccc(O)cc2)[C@H](O)[C@@H](O)[C@@H]1O
